The target in the assay is T1, NADPH oxidase 1 (Homo sapiens, UniProt Q9Y5S8).
T1 sequence (Q9Y5S8 whole entry): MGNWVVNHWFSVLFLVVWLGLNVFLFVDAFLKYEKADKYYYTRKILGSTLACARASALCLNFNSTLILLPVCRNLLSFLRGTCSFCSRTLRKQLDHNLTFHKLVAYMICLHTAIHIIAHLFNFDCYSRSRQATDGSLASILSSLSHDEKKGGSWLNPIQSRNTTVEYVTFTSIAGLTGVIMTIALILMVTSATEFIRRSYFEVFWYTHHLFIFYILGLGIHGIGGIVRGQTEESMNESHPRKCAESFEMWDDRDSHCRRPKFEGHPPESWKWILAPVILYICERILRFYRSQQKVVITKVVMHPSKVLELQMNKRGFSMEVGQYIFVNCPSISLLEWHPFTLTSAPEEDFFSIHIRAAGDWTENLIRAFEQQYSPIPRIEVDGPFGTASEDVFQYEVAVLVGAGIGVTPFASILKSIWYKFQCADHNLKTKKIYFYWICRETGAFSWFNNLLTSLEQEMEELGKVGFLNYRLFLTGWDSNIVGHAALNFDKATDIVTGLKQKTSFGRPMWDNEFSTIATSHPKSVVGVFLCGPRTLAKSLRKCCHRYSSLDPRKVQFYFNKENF
As to the kind of experiment: xanthine oxidase inhibitors, late-stage follow-up, NOX1 inhibitor project, biochemical, IC50, set 2 (AID 435009).

Molecules are shown by their SMILES.

On to `CN(C)c1ccc(CN=Nc2c(Cl)cncc2Cl)cc1`, for which the IC50 (commonly the concentration needed to halve the response being measured) was greater than 50 µM.

As to `Oc1c(Br)cc(CN=Nc2c(Cl)cncc2Cl)cc1Br` [4-[[2-[3,5-bis(chloranyl)pyridin-4-yl]hydrazinyl]methylidene]-2,6-bis(bromanyl)cyclohexa-2,5-dien-1-one], the half-inhibitory concentration (IC50) is greater than 50 µM.

Values taken from BindingDB's records for doi:10.7270/Q2JD4V7Q (The Scripps Research Institute Molecular Screening Center, 2010).
